Test results taken from patent US20230020999A1, “ANTI-CD30 ANTIBODY-DRUG CONJUGATES AND THEIR USE FOR THE TREATMENT OF HIV INFECTION” (priority 2019, published 2023).
Non-standard residues stand in square brackets, D forms with d. Residues, ends and D or L forms follow the SMILES beside them. *: point of attachment. Dolaproine = CO[C@@H]([C@@H]1CCCN1)[C@@H](C)C(=O)O; Dil = CC[C@H](C)[C@H](NC)[C@@H](CC(=O)O)OC; X1 = C[C@@H](N*)[C@@H](O)c1ccccc1; NMeV = CN[C@H](C(=O)O)C(C)C

Legend:
CD30+ cell lines = details: in vitro; cited from earlier work
[1] = tested on: Hodgkin disease xenograft; details: SCID mouse xenograft models of Hodgkin disease; cited from earlier work
[2] = tested on: T regulatory cells (Treg); test: Free MMAE titration on activated T cell populations, viable cell counts; assay type: cell-based; details: CD3/CD28 beads and IL-2 (10 ng/ml), 4 days, cell counts relative to untreated control
Procedure: (§1) To evaluate the effect of free MMAE on the various T cell populations, naïve (CD45RA+, CD45RO−) and memory (CD45RA−, CD45RO+) CD4 and CD8 T cells and CD25^hi CD127^lo T regulatory cells were enriched from healthy donor leukopaks and activated with CD3/CD28 beads and IL-2 (10 ng/ml) in round-bottom 96-well tissue culture plates for 4 days with a titration of free monomethyl auristatin E (MMAE). […] Data are represented as cell counts relative to untreated control.

memory CD4 T cells [3] = test: as above; assay type: cell-based; details: CD3/CD28 beads and IL-2 (10 ng/ml), 4 days, cell counts relative to untreated control
Procedure: as §1

memory CD8 T cells = test: as above; assay type: cell-based; details: Memory CDS; CD3/CD28 beads and IL-2 (10 ng/ml), 4 days; cell counts relative to untreated control
Procedure: as §1

naïve CD4 T cells = test: as above; assay type: cell-based; details: CD3/CD28 beads and IL-2 (10 ng/ml), 4 days, cell counts relative to untreated control
Procedure: as §1

naïve CD8 T cells = test: as above; assay type: cell-based; details: Naïve CDS; CD3/CD28 beads and IL-2 (10 ng/ml), 4 days; cell counts relative to untreated control
Procedure: as §1

[4] = target: permeability glycoprotein (Pgp) (Homo sapiens, UniProt P08183); details: cited from earlier work
CYP3A4 = CYP3A4 (Homo sapiens, UniProt P08684); details: cited from earlier work
Treg = test: Effect of BV on activated T cell viability (FACS); assay type: cell-based
Procedure: (§2) To evaluate the effect of BV on activated T cell viability, naïve, memory, and Treg subsets were driven to proliferate in vitro in the presence of BV or control antibody-drug conjugate (ADC). Briefly, T cell subsets were mixed with CD3/CD28 beads (4:1)+IL-2 10 ng/ml in RPMI 10% FCS and distributed −2.0×10^4 cells/well into a 96-well round-bottom plate. A titration of BV or control IgG-MMAE was added to replicate wells, for a final volume of 200 μl, and plates were incubated at 37° C. for 4 days. On the final day of the assay, cells were stained with Zombie® Aqua Viability Dye and a non-competing monoclonal μCD30-PE (Biolegend) for FACS analysis. […] Cell counts are shown as the percent of untreated control.

memory CD4 T cells [5] = test: Effect of BV on activated T cell viability (FACS); assay type: cell-based
Procedure: as §2

Tregs = details: subjects with CD30+ lymphomas; cited from earlier work
[6] = CD3/CD28 beads + IL-2, BV titration, 4 days, n=4, FIG. 1A

Sequence of permeability glycoprotein (Pgp) (P08183 whole entry): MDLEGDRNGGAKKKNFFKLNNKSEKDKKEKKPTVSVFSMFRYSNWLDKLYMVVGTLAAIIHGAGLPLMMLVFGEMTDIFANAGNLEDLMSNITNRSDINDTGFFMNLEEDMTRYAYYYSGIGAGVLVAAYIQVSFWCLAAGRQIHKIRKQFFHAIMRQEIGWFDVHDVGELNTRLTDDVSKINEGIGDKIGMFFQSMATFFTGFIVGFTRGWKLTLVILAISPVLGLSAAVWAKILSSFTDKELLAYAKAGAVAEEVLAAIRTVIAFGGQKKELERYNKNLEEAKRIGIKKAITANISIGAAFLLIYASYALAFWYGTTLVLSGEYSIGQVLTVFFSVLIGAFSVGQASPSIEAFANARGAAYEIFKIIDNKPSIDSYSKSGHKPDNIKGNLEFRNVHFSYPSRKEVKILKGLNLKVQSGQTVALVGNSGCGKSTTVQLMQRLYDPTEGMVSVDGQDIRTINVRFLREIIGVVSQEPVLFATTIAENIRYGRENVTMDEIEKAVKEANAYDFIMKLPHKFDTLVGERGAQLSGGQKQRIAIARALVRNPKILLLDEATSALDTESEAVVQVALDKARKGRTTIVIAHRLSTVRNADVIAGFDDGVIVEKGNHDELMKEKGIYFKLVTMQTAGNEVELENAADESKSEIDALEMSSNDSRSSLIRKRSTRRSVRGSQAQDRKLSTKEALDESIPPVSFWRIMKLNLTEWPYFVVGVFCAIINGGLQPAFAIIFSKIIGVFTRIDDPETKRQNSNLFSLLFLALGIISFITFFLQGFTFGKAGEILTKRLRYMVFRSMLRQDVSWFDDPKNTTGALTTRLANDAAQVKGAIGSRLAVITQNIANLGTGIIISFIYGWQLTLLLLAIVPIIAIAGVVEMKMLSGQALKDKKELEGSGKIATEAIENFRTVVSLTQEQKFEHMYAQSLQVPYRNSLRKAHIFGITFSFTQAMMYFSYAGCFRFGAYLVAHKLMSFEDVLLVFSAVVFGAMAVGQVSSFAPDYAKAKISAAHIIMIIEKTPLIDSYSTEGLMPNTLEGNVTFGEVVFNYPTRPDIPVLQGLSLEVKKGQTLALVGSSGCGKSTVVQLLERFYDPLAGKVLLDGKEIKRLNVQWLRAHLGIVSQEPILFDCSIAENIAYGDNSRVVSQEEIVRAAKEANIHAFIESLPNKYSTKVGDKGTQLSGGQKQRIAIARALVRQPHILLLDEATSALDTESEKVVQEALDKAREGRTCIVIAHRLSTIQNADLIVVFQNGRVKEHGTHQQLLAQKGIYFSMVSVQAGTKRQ
Sequence of CYP3A4 (P08684 whole entry): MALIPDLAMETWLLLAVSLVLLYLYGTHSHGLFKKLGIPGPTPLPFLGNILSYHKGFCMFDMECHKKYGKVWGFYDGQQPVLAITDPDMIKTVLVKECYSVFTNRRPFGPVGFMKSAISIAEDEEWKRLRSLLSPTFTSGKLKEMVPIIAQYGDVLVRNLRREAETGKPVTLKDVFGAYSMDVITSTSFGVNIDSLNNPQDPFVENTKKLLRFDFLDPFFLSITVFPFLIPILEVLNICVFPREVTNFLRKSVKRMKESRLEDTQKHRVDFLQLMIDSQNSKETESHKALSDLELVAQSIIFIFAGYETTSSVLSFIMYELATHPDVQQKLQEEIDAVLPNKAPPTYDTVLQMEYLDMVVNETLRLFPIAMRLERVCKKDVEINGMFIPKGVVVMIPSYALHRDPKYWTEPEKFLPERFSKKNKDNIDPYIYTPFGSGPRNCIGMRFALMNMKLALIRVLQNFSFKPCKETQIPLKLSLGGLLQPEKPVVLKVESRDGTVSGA

Molecule: cAC10
- growth of CD30+ cell lines (CD30+ cell lines): induces growth arrest
- antitumor activity [1]: pronounced antitumor activity

Molecule: CC[C@H](C)[C@@H]([C@@H](CC(=O)N1CCC[C@H]1[C@H](OC)[C@@H](C)C(=O)N[C@H](C)[C@@H](O)c1ccccc1)OC)N(C)C(=O)[C@@H](NC(=O)[C@@H](NC)C(C)C)C(C)C [MMAE, monomethyl auristatin E] (H-[NMeV]V[Dil][Dolaproine]-X1)
- IC50 [2]: 0.43 nM
- IC50 (memory CD4 T cells [3]): 0.55 nM
- IC50 (memory CD8 T cells): 0.77 nM
- IC50 (naïve CD4 T cells): 1.13 nM
- IC50 (naïve CD8 T cells): 1.96 nM
- Pgp substrate [4]: known Pgp substrate
- metabolism (CYP3A4): primarily metabolized by CYP3A4

B1: brentuximab vedotin (conjugate)
VH: QIQLQQSGPEVVKPGASVKISCKASGYTFTDYYITWVKQKPGQGLEWIGWIYPGSGNTKYNEKFKGKATLTVDTSSSTAFMQLSSLTSEDTAVYFCANYGNYWFAYWGQGTQVTVSA
VL: DIVLTQSPASLAVSLGQRATISCKASQSVDFDGDSYMNWYQQKPGQPPKVLIYAASNLESGIPARFSGSGSGTDFTLNIHPVEEEDAATYYCQQSNEDPWTFGGGTKLEIK
- total viable Treg cell numbers (Treg; [6]): dose-dependent reduction
- numbers of viable CD30+ cells (Treg; CD30+ Treg, end of 4-day assay, FIG. 1B): enhanced depletion
- total viable memory CD4 T cell numbers (memory CD4 T cells [5]; [6]): dose-dependent reduction
- numbers of viable CD30+ cells (memory CD4 T cells [5]; CD30+ memory CD4 T cells, end of 4-day assay, FIG. 1B): enhanced depletion
- change in Tregs (Tregs): reduction in Tregs
